According to patent publication US20170030926A1, “MARKER OF NEUROPATHIC GAUCHER'S DISEASE AND METHODS OF USE THEREOF” (Yeda Research and Development Co. Ltd., priority 2014, published 2017):

What was measured:
[1] = Therapeutic effect on the brain in Type 3 GD patients on long-term ERT and miglustat; assay type: in vivo, human; settings: long-term treatment
From the text: Spinal fluid samples were collected for biomarker discovery from patients with Type 3 GD and age-matched control subjects.

[2] = test system: GPNMB; test: GPNMB levels in CSF and brain homogenates of CBE treated mice by ELISA; assay type: in vivo
Experimental: (§1) C57BL/6OlaHsd mice were used as another model of nGD, in which the disease is induced by intra-peritoneal (IP) injection with 100 mg/Kg/day conduritol b epoxide ([…], calbiochem), an irreversible GCase inhibitor.
Mice were anesthetized (100mg/kg Ketamine and 10 mg/Kg xylazine) and CSF was aspired from the Cisterna magna using glass needles. Brain tissues were removed and lysed in ˜6 volumes of Ripa buffer (150 mM sodium chloride, 1.0% Triton X-100, 0.5% sodium deoxycholate, 0.1% SDS, 50 mM Tris, pH 8.0) supplemented with a protease inhibitor mixture (Sigma). Following homogenization, samples were centrifuged at 4500gav for 5 min at 4° C., and the supernatant was collected. Protein level was quantified using the BCA protein assay reagent (Pierce Chemical Co.) GPNMB was measured using the mouse GPNMB ELISA kit (R&D systems) According to manufacturer's protocol.
(§2) Correlation of CSF levels of GPNMB and nGD symptoms was further verified using an additional mouse model of GD, where mice are induced for GD by injections of conduritol b epoxide (CBE), a GCase inhibitor. 100 mg/Kg/day of CBE were daily injected into mice starting on day 15 post-natal. On day 30 the mice were divided into three groups: “CBE D15-30” in which CBE injections were ceased on day 30, “CBE D15-30; PBS D31-41” in which CBE injections were ceased on day 30 and the mice continued to receive phosphate buffered saline (PBS) injections until day 41, and “CBE D15-41”, in which CBE injections were continued to day 41. An additional group of mice was injected with PBS during the entire experiment (“PBS”) and served as a control (FIG. 4A). Mice body weight, a simple indicator of disease progression, was measured daily during the experiment and the results are shown in FIG. 4B.
CSF was aspirated from the Cisterna magna of the mice and GPNMB levels were measured in both CSF (FIG. 4C) and brain homogenates (FIG. 4D) by ELISA. […] Remarkably, GPNMB levels rapidly declined during the recovery period. More specifically, GPNMB levels in the CSF and brain increased upon injection of CBE from day 15-30 and to a higher extent with injection until day 41.

[3] = Body weight of mice induced for GD by daily CBE injections; assay type: in vivo, C57BL/6OlaHsd mice
Experimental: as §1, §2

[4] = compared with mice continuously treated with CBE until day 41

SMILES	therapeutic effect on the brain [1]	GPNMB level in CSF ([2]; CBE treated mice vs PBS control, ELISA)	GPNMB level in brain ([2]; CBE treated mice vs PBS control, brain homogenates, ELISA)	GPNMB level in CSF on day 41 after cessation of CBE on day 30 [2, 4]	GPNMB level in brain on day 41 after cessation of CBE on day 30 [2, 4]	time until body weight began to decrease after beginning CBE injections ([3]; 100 mg/Kg/day IP daily from day 15 post-natal, body weight as indicator of disease progression) [days]	body weight course after CBE injections ceased ([3]; CBE D15-30, PBS D31-41 group)	body weight course with continued CBE injections ([3]; CBE D15-41 group, 100 mg/Kg/day)
CCCCN1C[C@H](O)[C@@H](O)[C@H](O)[C@H]1CO [miglustat]	neither had any therapeutic effect on the brain							
O[C@H]1[C@H](O)[C@@H](O)[C@@H]2O[C@@H]2[C@@H]1O (racemic) [CBE, conduritol b epoxide]		marked elevation	marked elevation	significantly lower level	significantly lower level	10 to 12	began to gain weight	continued to decrease until day 41
